Results as given in patent publication US20200385371A1 (Propellon Therapeutics Inc., priority 2017, published 2020).

Tests used:
WDR5 [1] = biological target: T1, WDR5 (Homo sapiens, UniProt P61964); assay: Surface Plasmon Resonance (SPR) assay; format: binding; design: Full length WDR5 with an N-terminal His tag and C-terminal AviTag; His tag (N); made in house; host or cells: E. coli; conditions: read-out: SPR Kd
How it was run: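 Full-length biotinylated WDR5 (N-His, C-AviTag, E. coli) captured (~3000 RU) on streptavidin SA chip; Biacore T200. HBS-EP pH 7.4 plus 5% DMSO running buffer, 40 μl/min.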

MV4-11 cells = assay: Cell proliferation assay (ATPlite); format: cell-based; conditions: Homo sapiens, 120 h; MV4-11 cells, five days; read-out: GI MV411 EC50
How it was run: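 ATPlite luminescence after five days' culture (37° C, 5% CO2) gives viability. Compounds dosed in 10 concentrations up to 10 μM against DMSO; 1,000 cells/well seeded in Alpha-MEM/10% FBS.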

WDR5 [2] = biological target: T1, WDR5; assay: Fluorescence Polarization (FP) binding assay
How it was run: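 Buffer was pH 6.5 sodium phosphate (80 mM) with 20 mM KCl and 0.008% Triton X-100; 9-Ala-FAM probe at 20 nM used 0.05 μM WDR5 and 480/540 nm polarization, H3 (1-15) probe at 30 nM used 0.3 μM WDR5 and 485/528 nm. Quadruplicate data were hyperbola-fitted to give Kdisp.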

SMILES	Kd (WDR5 [1]) [µM]	EC50 (MV4-11 cells) [µM]	IC50 (WDR5 [2]) [µM]
C[C@H]1CN(c2cc(F)c(-c3ccc(OC4CCOCC4)nc3)c(F)c2NC(=O)c2c[nH]c(=O)cc2C(F)(F)F)CCN1C [Example 186, (S)—N-(6-(3,4-dimethylpiperazin-1-yl)-2,4-difluoro-3-(6-((tetrahydro-2H-pyran-4-yl)oxy)pyridin-3-yl)phenyl)-6-oxo-4-(trifluoromethyl)-1,6-dihydropyridine-3-carboxamide]	0.0008	0.0399	0.0269
C[C@@H]1CN(c2cc(F)c(-c3ccc(C(N)=O)c(F)c3)c(F)c2NC(=O)c2c[nH]c(=O)cc2C(F)(F)F)C[C@H](C)N1C [Example 25, N-(4′-carbamoyl-2,3′,6-trifluoro-4-((3S,5R)-3,4,5-trimethylpiperazin-1-yl)-[1,1′-biphenyl]-3-yl)-6-oxo-4-(trifluoromethyl)-1,6-dihydropyridine-3-carboxamide]	0.00205	0.148	0.0195
C[C@@H]1CN(c2cc(F)c(-c3cc(C(N)=O)c(F)cc3F)c(F)c2NC(=O)c2c[nH]c(=O)cc2C(F)(F)F)C[C@H](C)N1C [Example 30, N-(5′-carbamoyl-2,2′,4′,6-tetrafluoro-4-((3S,5R)-3,4,5-trimethylpiperazin-1-yl)-[1,1′-biphenyl]-3-yl)-6-oxo-4-(trifluoromethyl)-1,6-dihydropyridine-3-carboxamide]	0.0236	18.5	0.0859
C[C@@H]1CN(c2ccc(-c3c(F)cc(N4CCN(C)[C@@H](C)C4)c(NC(=O)c4c[nH]c(=O)cc4C(F)F)c3F)cn2)C[C@H](C)O1 [Example 182, 4-(Difluoromethyl)-N-(3-(6-((2S,6R)-2,6-dimethylmorpholino)pyridin-3-yl)-6-((S)-3,4-dimethylpiperazin-1-yl)-2,4-difluorophenyl)-6-oxo-1,6-dihydropyridine-3-carboxamide]	0.00115	0.031	0.0254
COc1cnc(N2CC=C(c3c(F)cc(N4CCN(C)[C@@H](C)C4)c(NC(=O)c4c[nH]c(=O)cc4C(F)(F)F)c3F)C2)nc1 [Example 51, (S)—N-(6-(3,4-dimethylpiperazin-1-yl)-2,4-difluoro-3-(1-(5-methoxypyrimidin-2-yl)-2,5-dihydro-1H-pyrrol-3-yl)phenyl)-6-oxo-4-(trifluoromethyl)-1,6-dihydropyridine-3-carboxamide]	0.0011	0.111	0.017
C[C@H]1CN(c2cc(F)c(C3=CCCN(c4ncc(C#N)s4)C3)c(F)c2NC(=O)c2c[nH]c(=O)cc2C(F)(F)F)CCN1C [Example 100, (S)—N-(3-(1-(5-cyanothiazol-2-yl)-1,2,5,6-tetrahydropyridin-3-yl)-6-(3,4-dimethylpiperazin-1-yl)-2,4-difluorophenyl)-6-oxo-4-(trifluoromethyl)-1,6-dihydropyridine-3-carboxamide]	0.00145	0.181	0.0119
C[C@@H]1CN(c2ncc(-c3c(F)cc(N4C[C@@H](C)N(C)[C@@H](C)C4)c(NC(=O)c4c[nH]c(=O)cc4C(F)(F)F)c3F)cn2)C[C@@H](C)O1 [Example 86, N-(3-(2-((2R,6R)-2,6-dimethylmorpholino)pyrimidin-5-yl)-2,4-difluoro-6-((3S,5R)-3,4,5-trimethylpiperazin-1-yl)phenyl)-6-oxo-4-(trifluoromethyl)-1,6-dihydropyridine-3-carboxamide]	0.00088	0.0105	0.0131
C[C@H]1CN(c2cc(F)c(C3=CCCN(c4ncccn4)C3)c(F)c2NC(=O)c2c[nH]c(=O)cc2C(F)F)CCN1C [Example 54, (S)-4-(difluoromethyl)-N-(6-(3,4-dimethylpiperazin-1-yl)-2,4-difluoro-3-(1-(pyrimidin-2-yl)-1,2,5,6-tetrahydropyridin-3-yl)phenyl)-6-oxo-1,6-dihydropyridine-3-carboxamide]	0.00383	0.693	0.0288
C[C@@H]1CN(c2cc(F)c(-c3cnc4c(c3)OCCO4)c(F)c2NC(=O)c2c[nH]c(=O)cc2C(F)(F)F)C[C@H](C)N1C [Example 73, N-(3-(2,3-dihydro-[1,4]dioxino[2,3-b]pyridin-7-yl)-2,4-difluoro-6-((3S,5R)-3,4,5-trimethylpiperazin-1-yl)phenyl)-6-oxo-4-(trifluoromethyl)-1,6-dihydropyridine-3-carboxamide]	0.00126	0.11	0.0168

Other lines, results leading:

Kd (WDR5 [1]) [µM]	EC50 (MV4-11 cells) [µM]	IC50 (WDR5 [2]) [µM]	SMILES
0.00135	0.0244	0.016	C[C@H]1CN(c2cc(F)c(-c3cnc(N4CCNCC4)nc3)c(F)c2NC(=O)c2ccc(F)cc2C(F)(F)F)CCN1C [Example 173, (S)—N-(6-(3,4-dimethylpiperazin-1-yl)-2,4-difluoro-3-(2-(piperazin-1-yl)pyrimidin-5-yl)phenyl)-4-fluoro-2-(trifluoromethyl)benzamide]
0.00121	0.074	0.0112	C[C@H]1CN(c2cc(F)c(-c3cnc(N4CC5CCC(C4)O5)nc3)c(F)c2NC(=O)c2c[nH]c(=O)cc2C(F)F)CCN1C [Example 155, (S)—N-(3-(2-(8-oxa-3-azabicyclo[3.2.1]octan-3-yl)pyrimidin-5-yl)-6-(3,4-dimethylpiperazin-1-yl)-2,4-difluorophenyl)-4-(difluoromethyl)-6-oxo-1,6-dihydropyridine-3-carboxamide-]
0.00104	0.0966	0.0196	C[C@@H]1CN(c2cc(F)c(-c3cnc(N4CCOCC4)nc3)c(F)c2NC(=O)c2ccc(F)cc2C(F)F)C[C@H](C)N1C [Example 31, N-(2,4-difluoro-3-(2-morpholinopyrimidin-5-yl)-6-((3S,5R)-3,4,5-trimethylpiperazin-1-yl)phenyl)-2-(difluoromethyl)-4-fluorobenzamideformic Acid]
0.00084	0.0488	0.0071	C[C@@H]1CN(c2cc(F)c(-c3cnc(N4CCOCC4)nc3)c(F)c2NC(=O)c2c[nH]c(=O)cc2C(F)F)C[C@H](C)N1C [Example 41, N-(2,4-difluoro-3-(2-morpholinopyrimidin-5-yl)-6-((3S,5R)-3,4,5-trimethylpiperazin-1-yl)phenyl)-4-(difluoromethyl)-6-oxo-1,6-dihydropyridine-3-carboxamide]
0.00033	0.0592	0.01	C[C@@H]1CN(c2cc(F)c(-c3cnc(N4CCOCC4)nc3)c(F)c2NC(=O)c2ccc(F)cc2C(F)(F)F)C[C@H](C)N1C [Example 10, N-(2,4-difluoro-3-(2-morpholinopyrimidin-5-yl)-6-((3S,5R)-3,4,5-trimethylpiperazin-1-yl)phenyl)-4-fluoro-2-(trifluoromethyl)benzamideformic acid]
0.00136	0.254	0.014	C[C@H]1CN(c2ncc(-c3c(F)cc(N4CCN(C)[C@@H](C)C4)c(NC(=O)c4cn(C)c(=O)cc4C(F)F)c3F)cn2)C[C@H](C)O1 [Example 160, 4-(Difluoromethyl)-N-(3-(2-((2S,6S)-2,6-dimethylmorpholino)pyrimidin-5-yl)-6-((S)-3,4-dimethylpiperazin-1-yl)-2,4-difluorophenyl)-1-methyl-6-oxo-1,6-dihydropyridine-3-carboxamide]
0.00089	0.0299	0.015	C[C@@H]1CN(c2cc(F)c(-c3cnc(N4C[C@H]5CC[C@@H](C4)O5)nc3)c(F)c2NC(=O)c2c[nH]c(=O)cc2C(F)(F)F)C[C@H](C)N1C [Example 90, N-(3-(2-((R,5S)-8-oxa-3-azabicyclo[3.2.1]octan-3-yl)pyrimidin-5-yl)-2,4-difluoro-6-((3S,5R)-3,4,5-trimethylpiperazin-1-yl)phenyl)-6-oxo-4-(trifluoromethyl)-1,6-dihydropyridine-3-carboxamide]
0.00196	0.0812	0.0154	C[C@@H]1CN(c2cc(F)c(-c3cnc(N4CC5CCC(C4)O5)nc3)c(F)c2NC(=O)c2c[nH]c(=O)cc2C(F)F)C[C@H](C)N1C [Example 156, N-(3-(2-(8-oxa-3-azabicyclo[3.2.1]octan-3-yl)pyrimidin-5-yl)-2,4-difluoro-6-((3S,5R)-3,4,5-trimethylpiperazin-1-yl)phenyl)-4-(difluoromethyl)-6-oxo-1,6-dihydropyridine-3-carboxamide]
0.00064	0.0299	0.0245	C[C@@H]1CN(c2ccc(-c3c(F)cc(N4CCN(C)[C@@H](C)C4)c(NC(=O)c4c[nH]c(=O)cc4C(F)F)c3F)cn2)CCO1 [Example 181, 4-(Difluoromethyl)-N-(6-((S)-3,4-dimethylpiperazin-1-yl)-2,4-difluoro-3-(6-((R)-2-methylmorpholino)pyridin-3-yl)phenyl)-6-oxo-1,6-dihydropyridine-3-carboxamide]
0.00126	0.0115	0.011	C[C@H]1CN(c2ncc(-c3c(F)cc(N4CCN(C)[C@@H](C)C4)c(NC(=O)c4c[nH]c(=O)cc4C(F)(F)F)c3F)cn2)CCO1 [Example 60, N-(6-((S)-3,4-dimethylpiperazin-1-yl)-2,4-difluoro-3-(2-((S)-2-methylmorpholino)pyrimidin-5-yl)phenyl)-6-oxo-4-(trifluoromethyl)-1,6-dihydropyridine-3-carboxamide]
